Experimental data taken from ChEMBL document CHEMBL5236619, “Design and Optimization of 1H-1,2,3-Triazole-4-carboxamides as Novel, Potent, and Selective Inverse Agonists and Antagonists of PXR” (J Med Chem, 2022).
pEC50, pIC50: −log10 of the molar value.

Key:
[1] = target: T1, PXR (NR1I2) (Homo sapiens, UniProt O75469); experiment: Inverse agonist activity at human PXR in human HepG2 cells co-expressing luciferase gene under control of CYP3A4 promoter assessed as inhibition in receptor basal activity at 10 uM incubated for 24 hrs by luminescence based analysis relative to control; type: cell-based
T1 sequence (O75469 whole entry): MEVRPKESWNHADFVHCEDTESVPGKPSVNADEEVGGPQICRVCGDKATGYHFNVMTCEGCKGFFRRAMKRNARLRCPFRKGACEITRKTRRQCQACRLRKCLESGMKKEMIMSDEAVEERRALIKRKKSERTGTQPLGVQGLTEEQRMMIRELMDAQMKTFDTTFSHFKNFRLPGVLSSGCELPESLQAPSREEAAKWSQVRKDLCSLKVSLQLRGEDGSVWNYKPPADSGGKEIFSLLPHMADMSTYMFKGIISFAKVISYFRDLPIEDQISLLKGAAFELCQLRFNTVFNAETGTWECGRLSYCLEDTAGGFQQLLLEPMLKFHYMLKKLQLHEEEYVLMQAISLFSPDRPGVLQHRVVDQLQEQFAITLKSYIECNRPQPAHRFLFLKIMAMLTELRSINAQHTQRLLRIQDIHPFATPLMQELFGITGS

[2] = target: T2, Nuclear receptor subfamily 1 group I member 2 (Homo sapiens, UniProt O75469); experiment: Agonist activity at human PXR in human HepG2 cells co-expressing luciferase gene under control of CYP3A4 promoter assessed as transcriptional activation at 30 uM incubated for 24 hrs by luminescence based analysis; type: cell-based; details: hepg2, 24 h
T2 sequence (O75469 whole entry): T1 sequence (O75469 whole entry)

[3] = target: T3, PXR (NR1I2) ligand binding domain (Homo sapiens, UniProt O75469); experiment: Inhibition of BODIPY FL vindoline binding to recombinant human GST-tagged PXR LBD (111 to 434 residues) expressed in baculovirus infected insect cells at 10 uM incubated for 1 mins under shaking condition followed by 60 mins under dark condition by TR-FRET assay relative to control; details: probe BODIPY FL vindoline, time 61 min
T3 sequence (O75469 whole entry): T1 sequence (O75469 whole entry)

[4] = target: T2, Nuclear receptor subfamily 1 group I member 2; experiment: Agonist activity at human PXR in human HepG2 cells co-expressing luciferase gene under control of CYP3A4 promoter assessed as transcriptional activation at 10 uM incubated for 24 hrs by luminescence based analysis relative to control
[5] = target: T2, Nuclear receptor subfamily 1 group I member 2; experiment: Inverse agonist activity at human PXR in human HepG2 cells co-expressing luciferase gene under control of CYP3A4 promoter assessed as inhibition in receptor basal activity at 30 uM incubated for 24 hrs by luminescence based analysis; details: hepg2, 24 h
[6] = target: T2, Nuclear receptor subfamily 1 group I member 2; experiment: Inhibition of BODIPY FL vindoline binding to recombinant human GST-tagged PXR LBD (111 to 434 residues) expressed in baculovirus infected insect cells incubated for 1 mins under shaking condition followed by 60 mins under dark condition by TR-FRET assay
[7] = target: T2, Nuclear receptor subfamily 1 group I member 2; experiment: Agonist activity at human PXR in human HepG2 cells co-expressing luciferase gene under control of CYP3A4 promoter assessed as transcriptional activation incubated for 24 hrs by luminescence based analysis
[8] = target: T2, Nuclear receptor subfamily 1 group I member 2; experiment: Antagonist activity at human PXR in human HepG2 cells co-expressing luciferase gene under control of CYP3A4 promoter assessed as inhibition in rifampicin-induced receptor activation at 30 uM incubated for 24 hrs by luminescence based analysis; type: cell-based; details: hepg2, 24 h
[9] = target: T2, Nuclear receptor subfamily 1 group I member 2; experiment: Inverse agonist activity at human PXR in human HepG2 cells co-expressing luciferase gene under control of CYP3A4 promoter assessed as inhibition of receptor basal activity incubated for 24 hrs by luminescence based analysis; type: cell-based
[10] = target: T1, PXR (NR1I2); experiment: Antagonist activity at human PXR in human HepG2 cells co-expressing luciferase gene under control of CYP3A4 promoter assessed as inhibition in rifampicin-induced receptor activation at 10 uM incubated for 24 hrs by luminescence based analysis relative to control; type: cell-based

Row | inhibition at 24 h, 10 µM [1] | Activity [2] | SMILES | inhibition at 1.017 h, 10 µM [3] | further results
1 | 89% | Not Active | CCCCOc1ccc(C(C)(C)C)cc1NC(=O)c1nnn(-c2cc(OC)ccc2OC)c1C | 90% | 
2 | 114% | Not Active | CCCOc1ccc(C(C)(C)C)cc1NC(=O)c1nnn(-c2cc(OC)ccc2OC)c1C | 79% | 
3 | 36% | Not Active | COc1ccc(OC)c(-n2nnc(C(=O)Nc3cccc(N4CCCCC4)c3)c2C)c1 | 50% | inhibition (INH) [8]: Not Active
4 |  | Not Active | CNc1cc(NC(=O)c2nnn(-c3cc(OC)ccc3OC)c2C)cc(C(C)(C)C)c1 |  | inhibition at 24 h, 10 µM [10]: 109%

Further lines, the compound ahead of its results:

Row | SMILES | inhibition at 24 h, 10 µM [1] | Activity [2] | inhibition at 1.017 h, 10 µM [3] | further results
5 | CCC[C@@H](C)Oc1ccc(C(C)(C)C)cc1NC(=O)c1nnn(-c2cc(OC)ccc2OC)c1C | 91% | Not Active | 81% | 
6 | COc1ccc(OC)c(-n2nnc(C(=O)Nc3ccccc3)c2C)c1 |  |  |  | activity at 24 h, 10 µM [4]: 33%; INH [5]: Not Active; inhibition (INH) ([6]; human, 1.017 h, time 61 min): Not Active; pEC50 [7]: 4.60; inhibition (INH) [8]: Not Active
7 | COc1ccc(OC)c(-n2nnc(C(=O)Nc3cc(C(C)(C)C)ccc3OCCN(C)C)c2C)c1 |  | Not Active | 87% | pIC50 [9]: 5.74
8 | CCCC(C)Oc1ccc(C(C)(C)C)cc1NC(=O)c1nnn(-c2cc(OC)ccc2OC)c1C (racemic) | 117% | Not Active | 90% | 
9 | CCC[C@@H](C)Oc1ccc(C(C)(C)C)cc1NC(=O)c1nnn(-c2cc(C)ccc2OC)c1C |  |  |  | INH [5]: Not Active; pIC50 [6]: 7.96; pEC50 [7]: 8.09
